Patent US12329799B2, “Peptidyl inhibitors of calcineurin-NFAT interaction” (Ohio State Innovation Foundation, priority 2018, dated 2025)
Positions of bridges follow the written chain, without caps; N, C: chain ends. Non-standard residues stand in square brackets, D forms with d. Residues, ends and D or L forms follow the SMILES beside them. Chains are numbered I, II in the order given. *: point of attachment. 2Nal = N[C@@H](Cc1ccc2ccccc2c1)C(=O)O; Val(3-OH) = CC(C)(O)[C@H](N)C(=O)O; Tle = CC(C)(C)[C@H](N)C(=O)O; X1 = O=C(c1ccnc(Cl)c1Cl)*; AEEA = NCCOCCOCC(=O)O

Tests used:
HCT116 cell spheroids = experiment: Cellular entry and intracellular stability by MALDI-TOF MS imaging; type: cell-based; conditions: 5 μM, 24 h of incubation
Method: Intracellular Stability. HCT116 cell spheroids in RPMI-1640 medium supplemented with 10% FBS and 1% penicillin/streptomycin were treated with 5 μM CNI103 for 4 or 24 h. Spheroids were washed three times with warm DPBS, quickly frozen, embedded in a solid support and cryo-sectioned. Prior to analysis, sinapinic acid was sublimed onto individual slides, which were subsequently imaged using a Bruker ultrafleXtreme MALDI-TOF-TOF mass spectrometer. The spectra were analyzed for intact CNI103 as well as proteolytic degradation fragments of interest. The MS signal intensity data were used to generate Heatmaps, scaled relative to the most intense signal, for each time point and fragment.

[1] = Caco-2 permeability assay; type: in vitro ADME; conditions: human, Caco-2, pH 7.4
Method: (§1) Caco-2 permeability assay. To assay the permeability of test compounds by Caco-2 cell model, Caco-2 cells were cultured to confluency before being trypsinized and seeded onto filter transwell inserts at a density of 30,000 cells/well in DMEM medium. Cells were cultured in a humidified atmosphere with 5% CO2 at 37° C. After overnight attachment, cell medium was replaced with fresh medium at both apical and basolateral sides every other day. The cell monolayers are ready for the assay 20 days post seeding. […] The dosing solution at 10 μM was obtained by diluting 10 mM stock solution in HBSS medium (pH 7.4, 25 mM HEPES) freshly before the assay. Terfenadine (25 ng/mL) and Tolbutamide (50 ng/mL) were added into dosing solution as internal standards. […] The culture medium from either the basolateral side (plate B) or apical side (plate A) were aspirated and then rinsed with HBSS medium once. Afterwards, the dosing medium was added to either basolateral or apical side. Following the incubation, 100 microliter samples from both sides were harvested at time 0 and time 90 min. Samples were quenched with acetonitrile/methanol (1:1 v/v), centrifuged, and analyzed on a Shimadzu reversed-phase HPLC and Sciex API4500 Q trap instrument.
(§2) Permeability parameters were calculated using the following equations and shown in Table 10: Papp=(Conc.receiver,90 min*Volumereceiver)/(Time*Membrane Area*Conc.donor,0 min) Efflux Ratio=Papp[B to A]/Papp[A to B]

Caco-2 cell monolayers = experiment: Caco-2 permeability assay; type: in vitro ADME
Method: as §1, §2

[2] = Liver microsome stability assay; type: in vitro ADME; conditions: mouse liver microsome
Method: Liver microsome stability assay. Liver microsome stability was assessed using mouse microsome (cat. M1000, XenoTech). Ten mM stock solution of CNI103 was similarly prepared in DMSO. One hundred micromolar of CNI103 solution was prepared by diluting the DMSO stock in phosphate buffer (50 mM potassium phosphate, pH 7.4). To assay the stability, liver microsomes (final concentration 0.5 mg/mL) were mixed with testing samples gently and incubated at 37° C. for 5 min. At varying time points post reaction (0, 5, 15, 30, and 60 min), 25 microliter aliquots were withdrawn and each aliquot (25 microliter) was quenched with 300 μL of an internal standard solution (25 ng/mL terfenadine in 1:1 v/v methanol/acetonitrile) followed by vigorous vortexing and centrifugation. To assess metabolism by P450 enzymes, the microsome degradation reaction was supplemented with NADPH (final 1 mM) followed by gentle mixing. 100 μL aliquots of the reaction mixture were withdrawn at 0, 30, or 60 min, diluted two fold with distilled water, and subjected to LC-MS/MS analysis on a reversed-phase HPLC coupled with Sciex 4500 Q-trap based quantification.

[3] = Stability in mouse hepatocytes; type: in vitro ADME
Method: (§3) Stability of CNI103 in mouse hepatocytes. Hepatocyte stability was assessed by using mouse hepatocyte (cat. M005052, BioIVT). Mouse hepatocytes were revived following manufacturer's procedure with Cryopreserved Hepatocyte Recovery Medium and used for the assay when cell viability was greater than 70%. Testing compound (at 2 μM) was mixed with mouse hepatocytes at 37° C. in a humidified incubator with 5% CO2. Final hepatocyte cell density was 2 million per mL. […] of the resulting supernatant was diluted two fold with distilled water and analyzed by reversed-phase HPLC coupled with Sciex 4500 Q-trap based quantification.

mouse hepatocytes = experiment: Stability in mouse hepatocytes; type: in vitro ADME; conditions: 2 μM
Method: as §3

in vitro = in vitro ADME; set-up: dose or concentration left out as unconfirmed; conditions: mouse
Method: Plasma binding was assessed using mouse plasma obtained from in-life studies. CNI103 was diluted to […] in pre-warmed mouse plasma. The solution was added to the left chamber of a commercial plate based RED (rapid equilibrium dialysis) device. Isotonic sodium phosphate buffer (100 mM sodium phosphate, 100 mM sodium chloride, pH 7.4) was added to the outer chamber of the RED device and the plate was incubated at 37° C. for five hours. Aliquots of the buffer and the plasma were withdrawn before and after the incubation and the concentrations of free and bound test compound were determined by LC/MS/MS analysis. To test for plasma stability, the dosing solution was also incubated at 37° C. for 5 hours and the concentration of CNI103 was determined by LC/MS/MS analysis as described above.
The calculation of percentage binding is calculated using the following equations and the results are presented in Table 13: Binding %=(Cpe−Cb)/Cpe×100 • Cpe=Conc. of test compound in plasma at equilibrium • Cb=Conc. of test compound in buffer at equilibrium % Stability of test compound=(Conc. of stability sample/Conc. of time zero sample)×100 % Recovery=(Cpe+Cb)/Conc. of stability sample×100

[4] = Stability in simulated gastric fluid (SGF); type: in vitro ADME
Method: (§4) Stability of CNI103 in simulated gastric fluid (SGF) was evaluated by diluting CNI103 (final 5 μM) in FaSSGF buffer (pH 1.2), which was prepared from FaSSGF powder (cat no. FFF01, BioRelavant). Similarly, stability of CNI103 in simulated intestinal fluid (SIF) was evaluated by diluting CNI103 (final 5 μM) in FaSSIF buffer (pH 6.5), which was prepared from FaSSIF powder (cat no. FFF-1017-B, BioRelavant) supplemented with Lecithin and maleic acid. The solutions were incubated at 37° C. for 5, 15, 30, 60, or 120 min, and the concentration of remaining CNI103 was determined by LC/MS/MS analysis as described above.

[5] = Stability in simulated intestinal fluid (SIF); type: in vitro ADME
Method: as §4

CC[C@H](C)[C@H](NC(=O)[C@@H](NC(=O)c1ccnc(Cl)c1Cl)C(C)(C)C)C(=O)N[C@H](C(=O)N[C@H](C(=O)N[C@H](C(=O)N[C@@H](CCC(N)=O)C(=O)N[C@@H](Cc1c[nH]cn1)C(=O)N[C@H](CC(C)C)C(=O)N[C@@H](CO)C(=O)NCCOCCOCC(=O)N[C@@H](CCCCNC(=O)CC[C@@H]1NC(=O)[C@@H](CCCNC(=N)N)NC(=O)[C@H](CCCNC(=N)N)NC(=O)[C@@H](CCCNC(=N)N)NC(=O)[C@H](CCCNC(=N)N)NC(=O)[C@H](Cc2ccc3ccccc3c2)NC(=O)[C@@H](Cc2ccccc2)NC1=O)C(N)=O)[C@@H](C)O)[C@@H](C)CC)C(C)(C)O [CNI103, (DCNA)-Tle-Ile-Bhv-Ile-Thr-Gln-His-(D-Leu)-Ser-miniPEG-Lys{[cyclo-(Gln-(D-Arg)-Arg-(D-Arg)-Arg-(2-Nal)-(D-Phe)]}-NH2] (I: X1-[Tle]I[Val(3-OH)]ITQH[dL]S[AEEA]K-NH2 / II: cyclo([2Nal]R[dR]R[dR]E[dF]); amide I:11-II:6 (inferred); ring closure inferred)
intracellular degradation (HCT116 cell spheroids): No significant degradation product signal
Papp A→B at 90 min, 10 μM ([1]; N = 2, 10 μM, 90 min): 7.5 ×10⁻⁶ cm/s
Papp B→A at 90 min, 10 μM ([1]; N = 2, 10 μM, 90 min): 2.1 ×10⁻⁶ cm/s
efflux ratio at 90 min, 10 μM ([1]; Papp[B to A]/Papp[A to B]): 0.3
Pgp Substrate (Caco-2 cell monolayers): No
remaining at 0.25 h ([2]; liver microsomes, pH 7.4, 15 min, read-out: % remaining (+NADPH)): 95.8%
remaining at 0.5 h ([2]; liver microsomes, pH 7.4, 30 min, read-out: % remaining (+NADPH)): 76%
remaining at 1 h ([2]; liver microsomes, pH 7.4, 60 min, read-out: % remaining (+NADPH)): 75.1%
% remaining (+NADPH) ([2]; 0 min): 100.0%
% remaining (−NADPH) ([2]; 0 min): 100.0%
% remaining (+NADPH) ([2]; 5 min): 131.1%
% remaining (−NADPH) ([2]; 30 min): 113.6%
% remaining (−NADPH) ([2]; 60 min): 70.8%
remaining at 0.25 h, 2 μM ([3]; 15 min): 103%
remaining at 0.5 h, 2 μM ([3]; 30 min): 101%
remaining at 1 h, 2 μM ([3]; 60 min): 120%
% remaining (mouse hepatocytes; 0 min): 100.00%
% remaining (mouse hepatocytes; 90 min): 141.77%
% remaining (mouse hepatocytes; 120 min): 124.89%
recovery at 5 hours (in vitro; pH 7.4): 130%
remaining at 5 h (in vitro; plasma): 110%
fraction unbound at 5 h (in vitro; plasma, pH 7.4): 0.024
% remaining ([4]; SGF (FaSSGF, pH 1.2), 37° C., 0 min, n = 2): 100.00%
remaining at 5 min, 5 μM ([4]; simulated gastric fluid (FaSSGF), pH 1.2, SGF, 5 min): 93.7%
remaining at 0.25 h, 5 μM ([4]; simulated gastric fluid (FaSSGF), pH 1.2, SGF, 15 min): 87.4%
remaining at 0.5 h, 5 μM ([4]; simulated gastric fluid (FaSSGF), pH 1.2, SGF, 30 min): 88.3%
remaining at 1 h, 5 μM ([4]; simulated gastric fluid (FaSSGF), pH 1.2, SGF, 60 min): 106%
remaining at 2 h, 5 μM ([4]; simulated gastric fluid (FaSSGF), pH 1.2, SGF, 120 min): 103%
% remaining ([5]; SIF (FaSSIF, pH 6.5), 37° C., 0 min, n = 2): 100.00%
remaining at 5 min, 5 μM ([5]; simulated intestinal fluid (FaSSIF), pH 6.5, SIF, 5 min): 92.3%
remaining at 0.25 h, 5 μM ([5]; simulated intestinal fluid (FaSSIF), pH 6.5, SIF, 15 min): 109%
remaining at 0.5 h, 5 μM ([5]; simulated intestinal fluid (FaSSIF), pH 6.5, SIF, 30 min): 109%
remaining at 1 h, 5 μM ([5]; simulated intestinal fluid (FaSSIF), pH 6.5, SIF, 60 min): 95.9%
remaining at 2 h, 5 μM ([5]; simulated intestinal fluid (FaSSIF), pH 6.5, SIF, 120 min): 75.6%
